Assay [1] addresses T1, GPR35 (Homo sapiens, UniProt Q9HC97). Put plainly: Tango β-arrestin translocation gene reporter assay in U2OS-GPR35-bla cells. The note with it: for Potency EC50, Tango / EC50: β-arrestin translocation, tested up to 1mM, mean ± S.D.; for Potency EC50, Tango: n = 4; for Efficacy Tango (%zaprinast): normalized to maximal response of zaprinast (100%); for EC50: n = 4, read-out: Potency EC50, Tango. Also on record: host or cells: U2OS (Tango U2OS-GPR35-bla). The assay is classed as cell-based. On the procedure:
(§1) Tango assays were performed in engineered U2OS-GPR35-bla cell line. This cell line permits an endpoint measurement of the activity of agonists specific to the GPR35 activation-induced β-arrestin translocation. Specifically, 10000 U2OS-GPR35-bla cells per well were seeded in 384-well, black-wall, clear bottom assay plates with low fluorescence background (Corning). After overnight culture, the cells were stimulated with ligands for 5 h at 37 °C under 5% CO2, and then loaded with the cell permeable LiveBLAzer™ fluorescence resonance energy transfer (FRET) B/G substrate. After 2 h incubation the coumarin to fluorescein ratio was measured using Victor 4 plate reader (PerkinElmer, Waltham, MA, USA).
Target sequence in this assay (Q9HC97 whole entry, species assumed): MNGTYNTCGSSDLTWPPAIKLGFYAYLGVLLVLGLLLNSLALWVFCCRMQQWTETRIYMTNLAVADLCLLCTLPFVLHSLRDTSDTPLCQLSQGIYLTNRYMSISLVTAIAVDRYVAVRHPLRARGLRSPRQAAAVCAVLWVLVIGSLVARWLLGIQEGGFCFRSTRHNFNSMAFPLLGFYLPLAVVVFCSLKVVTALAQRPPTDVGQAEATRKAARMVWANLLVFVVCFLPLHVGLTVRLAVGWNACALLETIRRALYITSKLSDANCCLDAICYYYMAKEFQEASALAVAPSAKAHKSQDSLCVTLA
For orientation: In a reporter assay the amount or activity of a reporter protein is the signal.

Assay [2] has as its target T1, GPR35. Put plainly: DMR agonist assay in native HT-29 cells. Conditions: for Potency EC50, DMR / EC50: mean ± S.D.; for Potency EC50, DMR: n = 4; for EC50: n = 4, read-out: Potency EC50, DMR; for Efficacy DMR: maximal DMR amplitude. On the set-up: label-free DMR assays in both native HT-29 and engineered U2OS-GPR35-bla cells; host or cells: HT-29. The assay is classed as cell-based. On the procedure: (§2) DMR assays were performed using an Epic® system (Corning Inc., Corning, NY, USA). This system records a ligand-induced dynamic mass redistribution (DMR) signal of live cells as a shift in resonant wavelength (in picometer, pm) of a resonant waveguide grating biosensor. The DMR signal obtained is a real-time kinetic response that provides a holistic view of ligand-receptor interaction(s) and its functional consequence in the cells. For HT-29 cells 30,000 cells per well were seeded into 384well Epic® biosensor plates (Corning) and cultured overnight. For U2OS and U2OS-GPR35-bla cells 18,000 cells per well were seeded and cultured overnight. These cells were then washed twice using a plate washer, maintained with Hank’s balanced salt solution (1 × HBSS) and further incubated inside the Epic® system for 1 h. DMR agonist profiling proceeds with a 2-min baseline, followed by compound addition and monitoring the compound-induced responses for about 1 h. […] All DMR signals were background corrected.
Target sequence in this assay (Q9HC97 whole entry): as the sequence (Q9HC97 whole entry, species assumed) above

Assay [3] has as its target T1, GPR35. Put plainly: ML-145 inhibition of Tango signals of agonists at a fixed dose in U2OS-GPR35-bla cells. The class given is cell-based. Also on record: host or cells: U2OS (Tango U2OS-GPR35-bla). Conditions: label = agonist at fixed dose: 10 μM zaprinast, 10 μM YE210, 50 μM gallic acid, 10 μM pyrogallol, 32 μM benserazide, 250 μM 3-methoxycatechol. As to the method: as §1
Target sequence in this assay (Q9HC97 whole entry, species assumed): as above

Assay [4] concerns the target T1, GPR35. The note with it: previously found; cited from earlier work.
Target sequence in this assay (Q9HC97 whole entry): as the sequence (Q9HC97 whole entry, species assumed) above
For assay [5], the target named is T1, GPR35. The experiment in a line: DMR antagonist assay in HT-29 cells (preincubation with antagonist, then agonist at fixed dose). The class given is cell-based. Also on record: label-free DMR assays in both native HT-29 and engineered U2OS-GPR35-bla cells; host or cells: HT-29. Conditions: 500 μM catechol; for Blockage of the agonist-induced DMR by ML-145: label = agonist at fixed dose: 64 μM propyl gallate, 200 or 100 μM syringic acid, 16 μM benserazide, 20 μM (+)-taxifolin, 100 μM fenoldopam; for Effect of antagonist on the catechol DMR: label = antagonist. As to the method: as §2
Target sequence in this assay (Q9HC97 whole entry): as the sequence (Q9HC97 whole entry, species assumed) above

In another assay the test system is parental U2OS cells. The experiment in a line: DMR agonist assay in parental U2OS cells. The class given is cell-based. Conditions: parental U2OS cells without GPR35. As to the method:
as §2

The target of assay [6] is T1, GPR35. The experiment in a line: DMR agonist assay in engineered U2OS-GPR35-bla cells. Conditions: DMR amplitude at 8min poststimulation; n = 4. The class given is cell-based. On the set-up: host or cells: U2OS (Tango U2OS-GPR35-bla). On the procedure: as §2
Target sequence in this assay (Q9HC97 whole entry, species assumed): as above

Structures are written as SMILES.

For `COc1ccc(C=CC(=O)O)cc1OC` [3,4-Dimethoxycinnamic acid, 3,4-dimethoxycinnamic acid], the “Potency EC50, Tango” value on GPR35 [1] was “inactive”. The “Potency EC50, DMR” value on GPR35 [2] is “inactive”.
By EC50 is commonly meant the midpoint of the concentration-response curve. For `O=C(O)c1cc(O)c(O)c(O)c1` [Gallic acid, gallic acid, reference compound], on GPR35 [1], the “Efficacy Tango (%zaprinast)” value was 77 ± 5 %zaprinast and the EC50 came to 12.6 ± 1 µM. Besides, the “Blockage of the agonist Tango signal by ML-145” value on GPR35 [3] was “dose-dependently blocked”. The EC50 at GPR35 [2] was found to be 1.16 ± 0.09 µM.
Take `O=C(O)/C=C/c1ccc(O)c(O)c1` [caffeic acid]: at GPR35 [4], the “GPR35 agonist activity (DMR in HT-29), in words” value was “weak partial agonist”.
For `Oc1cccc(O)c1O` [Pyrogallol, pyrogallol], on GPR35 [1], the “Efficacy Tango (%zaprinast)” value came out at 113 ± 5 %zaprinast and the 50% effective concentration (EC50) is 4.5 ± 0.4 µM. Moreover, on GPR35 [3], the “Blockage of the agonist Tango signal by ML-145” value was “dose-dependently blocked”. Moreover, on GPR35 [2], the “Efficacy DMR” value came out at 210 pm and the EC50 is 1.3 ± 0.1 µM.
As to `Oc1ccc(C2CNCCc3c2cc(O)c(O)c3Cl)cc1` (stereo not drawn) [Fenoldopam, fenoldopam, reference compound], at GPR35 [1], the “Efficacy Tango (%zaprinast)” value is 0 %zaprinast and the “Potency EC50, Tango” value is “inactive”. Moreover, at GPR35 [2], the “Efficacy DMR” value worked out at 268 pm and the EC50 came to 206 ± 19 µM. Further, the “Blockage of the agonist-induced DMR by ML-145” value at GPR35 [5] is listed as “completely blocked”.
As to `Oc1cc(O)c2c(c1)O[C@@H](c1ccc(O)c(O)c1)[C@H](O)C2` [(−)-Catechin, (−)-catechin], the “Potency EC50, Tango” value at GPR35 [1] was “inactive”. Moreover, the “Potency EC50, DMR” value at GPR35 [2] is “inactive”.
As for `NC(CO)C(=O)NNCc1ccc(O)c(O)c1O` (stereo not drawn) [Benserazide], the “Efficacy Tango (%zaprinast)” value on GPR35 [1] is 48 ± 4 %zaprinast. In addition, the EC50 at GPR35 [1] came out at 7.5 ± 0.6 µM; on GPR35 [2], 11 ± 0.9 µM; at GPR35 [6], 1 ± 0.13 µM. Further, on GPR35 [3], the “Blockage of the agonist Tango signal by ML-145” value is “dose-dependently blocked”. Also, the “Efficacy DMR” value on GPR35 [2] was found to be 296 pm. In the assay with parental U2OS cells, the “DMR activity in the parental U2OS cells” value was “inactive”. The “Blockage of the agonist-induced DMR by ML-145” value at GPR35 [5] was “partially blocked”.
Take `Oc1ccccc1O` [Catechol, catechol]: at GPR35 [1], the “Efficacy Tango (%zaprinast)” value worked out at 0 %zaprinast and the “Potency EC50, Tango” value was “inactive”. For the same compound, at GPR35 [2], the “Efficacy DMR” value was 207 pm and the EC50 was determined as 319 ± 27 µM. For the same compound, at GPR35 [5], the “Blockage of the agonist-induced DMR by ML-145” value was “completely blocked”.
Consider `CC(C)NCC(O)COc1ccc(CCOCC2CC2)cc1` (stereo not drawn) [betaxolol, reference compound], for which the “Effect of antagonist on the catechol DMR” value on GPR35 [5] is listed as “neither the β-adrenergic receptor antagonist betaxolol nor α2-adrenergic receptor antagonist yohimbine had any obvious effects”.
In the case of `O=C1c2c(O)cc(O)cc2O[C@H](c2ccc(O)c(O)c2)[C@H]1O` [(+)-Taxifolin, (+)-taxifolin], at GPR35 [1], the “Efficacy Tango (%zaprinast)” value is >8 %zaprinast and the “Potency EC50, Tango” value was “weak”. For the same compound, at GPR35 [2], the “Efficacy DMR” value is reported as 170 pm and the EC50 was 6.6 ± 0.5 µM. Also, the “Blockage of the agonist-induced DMR by ML-145” value on GPR35 [5] is recorded as “completely blocked”.
Turning to `COC(=O)[C@@H]1[C@H]2C[C@H]3c4[nH]c5ccccc5c4CCN3C[C@@H]2CC[C@@H]1O` [yohimbine, reference compound], at GPR35 [5], the “Effect of antagonist on the catechol DMR” value is reported as “neither the β-adrenergic receptor antagonist betaxolol nor α2-adrenergic receptor antagonist yohimbine had any obvious effects”.
On to `COc1cccc(O)c1O` [3-Methoxycatechol, 3-methoxycatechol], for which, at GPR35 [1], the “Efficacy Tango (%zaprinast)” value stood at 41 ± 3 %zaprinast and the 50% effective concentration (EC50) stood at 80.7 ± 6.3 µM. The “Blockage of the agonist Tango signal by ML-145” value on GPR35 [3] was “dose-dependently blocked”. For the same compound, on GPR35 [2], the “Efficacy DMR” value stood at 219 pm and the EC50 worked out at 147 ± 15 µM.
On to `CCCOC(=O)c1cc(O)c(O)c(O)c1` [Propyl gallate, propyl gallate], for which, at GPR35 [1], the “Efficacy Tango (%zaprinast)” value is on record as >8 %zaprinast and the “Potency EC50, Tango” value is “weak”. In addition, on GPR35 [2], the “Efficacy DMR” value was determined as 210 pm and the EC50 stood at 20.2 ± 1.9 µM. For the same compound, the “Blockage of the agonist-induced DMR by ML-145” value at GPR35 [5] is recorded as “completely blocked”.
For `COc1cc(C(=O)O)cc(OC)c1O` [Syringic acid, syringic acid], on GPR35 [1], the “Efficacy Tango (%zaprinast)” value is >10 %zaprinast and the “Potency EC50, Tango” value is “weak”. Further, on GPR35 [2], the “Efficacy DMR” value worked out at 151 pm and the EC50 turned out to be 147 ± 23 µM. Also, the “Blockage of the agonist-induced DMR by ML-145” value at GPR35 [5] was “completely blocked”.
Regarding `CCCOc1ccccc1-c1nc2nn[nH]c2c(=O)[nH]1` [zaprinast, Zaprinast], at GPR35 [3], the “Blockage of the agonist Tango signal by ML-145” value is recorded as “dose-dependently blocked”. Also, the “DMR activity in the parental U2OS cells” value in the assay with parental U2OS cells was “inactive”.
Turning to `Cc1c(C(=O)O)sc2c(Br)csc12` [YE210], the “Blockage of the agonist Tango signal by ML-145” value on GPR35 [3] is recorded as “dose-dependently blocked”.

These data come from publication PMC3816702, “The Three Catecholics Benserazide, Catechol and Pyrogallol are GPR35 Agonists” (Pharmaceuticals, 2013).
